Assay: LEED study: heartburn assessed by mRESQ-eDiary
Format: in vivo, human
Details: for % at most mild symptoms 24-hour days (mean) / % heartburn-free 24-hour days (mean) / Patients (%) totally free from heartburn / Patients (%) with at most mild heartburn / Patients (%) with non-mild heartburn: week 4, erosive patients all LA grades
Excerpt: Relief of reflux-related symptoms may be assessed based on the modified Reflux Symptom Reflux Questionnaire-electronic Diary (mRESQ-eDiary), which is an electronic symptom diary developed for use in partial responders to proton pump inhibitors. mRESQ-eD has three domains (i.e., heartburn, other GERD signs/symptoms and regurgitations/reflux) and eight items (Andrae et al., Clin. Transl. Gastroenterol. 2020, 11(1): e00117).
The study was a randomized, double-blind, active comparator-controlled study with a parallel group design including four arms with linaprazan glurate and one arm with lansoprazole. Pharmacokinetic (PK) blood sampling pre-dose, close before the first and the second dose administration was performed at Day 7, Day 14 and Day 28 visits days in all patients. 248 patients with erosive esophagitis due to GERD LA grade C or D and patients with erosive esophagitis due to GERD LA grade A or B with at least partial symptom response but still endoscopically unhealed after 8 weeks history of standard treatment healing course with PPI, were randomized.
Randomization to one of the treatments with linaprazan glurate 25 mg, 50 mg, 75 mg, 100 mg twice daily (BID), or lansoprazole 30 mg once daily (QD) was based on a 1:1:1:1:1 scheme. One site could not enroll more than about 20% of the overall number of patients (48 patients per site).
The duration of each patient's participation in the study, including screening, blind treatment period and open-label treatment period, was approximately 60 days. The patients were randomized for 4 weeks (28 days, −2/+5 days) of double-blind treatment and were provided with IMP for 35 days (including one additional blister pack dispensed at Visit 2/Day 0) to allow for treatment up to the visit window. […] Following the endoscopic evaluation, all patients received subsequent 4 weeks of open-label treatment with lansoprazole 30 mg QD. Repeated symptom evaluation to detect symptom pattern was assessed during this period.
Four doses of linaprazan glurate (25 mg, 50 mg, 75 mg, 100 mg, and dummies) were administered as tablets twice daily. The active comparator lansoprazole 30 mg and its dummy were administered as capsules once daily in the morning. The study drugs were taken with 100 mL of noncarbonated water at least 30 minutes prior to meals. The duration of double-blind treatment was 28 days −2/+5 days. To blind treatment, each patient received 2 tablets (containing doses of linaprazan glurate (LG) or its dummy) and one capsule (containing lansoprazole or its dummy) in the morning and 2 tablets (containing doses of linaprazan glurate (LG) or its dummy) in the evening, according to the scheme below:
A secondary objective of the study was the safety and tolerability of the four dose levels of linaprazan glurate and lansoprazole, with lansoprazole serving as the active comparator. Another secondary objective of the study was the reflux related symptom pattern during the initial 4 weeks treatment with four dose levels of linaprazan glurate and with lansoprazole, and the symptom pattern during the subsequent additional 4 weeks (weeks 5-8) open-label treatment with lansoprazole 30 mg QD. Heartburn-free 24-hour days and 24-hour days with at most mild heartburn symptoms were assessed based on modified eDiary (mRESQ-eD), including splits into day- and nighttime evaluations.
Reflux related symptoms were assessed based on a modified RESQ-eDiary (mRESQ-eD). Patients were asked to report every 12-hours, once before the morning dose and once before the evening dose of the Investigational Medicinal Product (IMP).

With `Cc1cccc(C)c1CNc1cc(C(=O)NCCOC(=O)CCCC(=O)O)cn2c(C)c(C)nc12` [linaprazan glurate, 5-{2-[({8-[(2,6-dimethylbenzyl)amino]-2,3-dimethylimidazo[1,2-a]pyridine-6-yl}carbonyl)-amino]ethoxy}-5-oxopentanoic acid] the “heartburn severity, rank among groups” value (FAS Erosive, first week, morning and evening, LG 75 mg BID) was “lowest heartburn severity”, the “percentage of symptom free days (highest of groups)” value (shortened to “percentage of symptom free days”) (FAS Erosive, week 1, LG 75 mg BID) was 33.3% and the “heartburn-free days vs lansoprazole” value (FAS Erosive, week 1 to 4, all LG groups) was “more heartburn-free days”. For the same molecule, the “percentage of symptom free days” value (FAS Erosive, week 2, LG 75 mg BID) was 57.2%, the “percentage of symptom free days” value (FAS Erosive, week 3, LG 75 mg BID) was 62.6% and the “percentage of symptom free days” value (FAS Erosive, week 4, LG 100 mg BID) was 65.2%. The “percentage of heartburn-free days (highest of groups)” value (“percentage of heartburn-free days” for short) (FAS Erosive, week 5 open-label lansoprazole, former LG 75 mg group) was 72.6%, the “heartburn-free days vs lansoprazole” value (FAS Erosive, week 5 to 8 open-label (all on lansoprazole 30 mg QD), former LG groups) was “more heartburn-free days” and the “percentage of heartburn-free days” value (FAS Erosive, week 6 open-label lansoprazole, former LG 75 mg group) was 73.0%. The “percentage of heartburn-free days” value (FAS Erosive, week 7 open-label lansoprazole, former LG 25 mg group) was 81.9%, the “percentage of heartburn-free days” value (FAS Erosive, week 8 open-label lansoprazole, former LG 25 mg group) was 87.6% and the “severity grade of heartburn, rank among groups” value (FAS, first week, morning and evening, LG 75 mg BID) was “lowest severity grade”. For the same molecule, the “percentage of symptom free days” value (FAS, week 1, LG 75 mg BID) was 29.2%, the “heartburn-free days vs lansoprazole” value (FAS, week 1 to 4, all LG groups) was “more heartburn-free days” and the “percentage of symptom free days” value (FAS, week 2, LG 75 mg BID) was 52.9%. The “percentage of symptom free days” value (FAS, week 4, LG 100 mg BID) was 62.2%, the “percentage of heartburn-free days” value (FAS, week 5 open-label lansoprazole, former LG 75 mg group) was 69.6% and the “heartburn-free days vs lansoprazole” value (FAS, week 5 to 8 open-label (all on lansoprazole 30 mg QD), former LG groups) was “more heartburn-free days”. The “percentage of heartburn-free days” value (FAS, week 7 open-label lansoprazole, former LG 25 mg group) was 79.4%, the “percentage of heartburn-free days” value (FAS, week 8 open-label lansoprazole, former LG 25 mg group) was 82.4% and the “heartburn-free days, rank among groups” value (LA Grade A/B, week 1 to 3, LG 75 mg BID) was “highest percentage of heartburn-free days”. The “heartburn-free days, rank among groups” value (LA Grade A/B, week 5 open-label lansoprazole, former LG 75 mg group) was “highest percentage of heartburn-free days”, the “heartburn-free days, rank among groups” value (LA Grade A/B, weeks 7 and 8 open-label lansoprazole, former LG 25 mg group) was “highest percentage of heartburn-free days” and the “heartburn-free days, rank among groups” value (LA Grade C/D, week 1 and 4, LG 50 mg BID) was “highest percentage of heartburn-free days”. The “heartburn-free days, rank among groups” value (LA Grade C/D, week 2, LG 75 mg BID) was “highest percentage of heartburn-free days”, the “heartburn-free days, rank among groups” value (LA Grade C/D, week 3, LG 100 mg BID) was “highest percentage of heartburn-free days” and the “heartburn-free days, rank among groups” value (LA Grade C/D, week 5 open-label lansoprazole, former LG 50 mg group) was “highest percentage of heartburn-free days”. For the same molecule, the “heartburn-free days, rank among groups” value (LA Grade C/D, week 6 to 8 open-label lansoprazole, former LG 75 mg group) was “highest percentage of heartburn-free days”, the “% at most mild symptoms 24-hour days (mean)” value (LG 25 mg BID (N = 21)) was 96% and the “% heartburn-free 24-hour days (mean)” value (LG 25 mg BID (N = 21)) was 52%. For the same molecule, the “Patients (%) totally free from heartburn” value (LG 25 mg BID (N = 21)) was 45%, the “Patients (%) with at most mild heartburn” value (LG 25 mg BID (N = 21)) was 97% and the “Patients (%) with non-mild heartburn” value (LG 25 mg BID (N = 21)) was 6%. The “% at most mild symptoms 24-hour days (mean)” value (LG 50 mg BID (N = 27)) was 96%, the “% heartburn-free 24-hour days (mean)” value (LG 50 mg BID (N = 27)) was 56% and the “Patients (%) totally free from heartburn” value (LG 50 mg BID (N = 27)) was 44%. The “Patients (%) with at most mild heartburn” value (LG 50 mg BID (N = 27)) was 97%, the “Patients (%) with non-mild heartburn” value (LG 50 mg BID (N = 27)) was 6% and the “% at most mild symptoms 24-hour days (mean)” value (LG 75 mg BID (N = 20)) was 97%. For the same molecule, the “% heartburn-free 24-hour days (mean)” value (LG 75 mg BID (N = 20)) was 56%, the “Patients (%) totally free from heartburn” value (LG 75 mg BID (N = 20)) was 50% and the “Patients (%) with at most mild heartburn” value (LG 75 mg BID (N = 20)) was 87%. For the same molecule, the “Patients (%) with non-mild heartburn” value (LG 75 mg BID (N = 20)) was 13%, the “% at most mild symptoms 24-hour days (mean)” value (LG 100 mg BID (N = 19)) was 100% and the “% heartburn-free 24-hour days (mean)” value (LG 100 mg BID (N = 19)) was 76%. For the same molecule, the “Patients (%) totally free from heartburn” value (LG 100 mg BID (N = 19)) was 63%, the “Patients (%) with at most mild heartburn” value (LG 100 mg BID (N = 19)) was 92% and the “Patients (%) with non-mild heartburn” value (LG 100 mg BID (N = 19)) was 8%.

From patent US20260306464A1, “LINAPRAZAN GLURATE FOR TREATING GASTROESOPHAGEAL REFLUX DISEASE (GERD)” (Cinclus Pharma Holding AB (publ), priority 2023, published 2026)
